Tests used:
[1] = molecular target: DNA (cytosine-5)-methyltransferase 3A (Homo sapiens) (UniProt Q9Y6K1); assay: Selectivity interaction (Methyltransferase screen (Scintillation proximity assays)) EUB0000255b DNMT3A
[2] = molecular target: Protein-tyrosine kinase 2-beta (Homo sapiens) (UniProt Q14289); assay: Selectivity interaction (KinomeScan (DiscoverX)) EUB0000092b PTK2B; details: at 10 µM
[3] = molecular target: T1, Muscle, skeletal receptor tyrosine-protein kinase (Homo sapiens) (UniProt O15146); assay: Selectivity interaction (ProQinase) EUB0000171b MUSK
T1 sequence (whole entry): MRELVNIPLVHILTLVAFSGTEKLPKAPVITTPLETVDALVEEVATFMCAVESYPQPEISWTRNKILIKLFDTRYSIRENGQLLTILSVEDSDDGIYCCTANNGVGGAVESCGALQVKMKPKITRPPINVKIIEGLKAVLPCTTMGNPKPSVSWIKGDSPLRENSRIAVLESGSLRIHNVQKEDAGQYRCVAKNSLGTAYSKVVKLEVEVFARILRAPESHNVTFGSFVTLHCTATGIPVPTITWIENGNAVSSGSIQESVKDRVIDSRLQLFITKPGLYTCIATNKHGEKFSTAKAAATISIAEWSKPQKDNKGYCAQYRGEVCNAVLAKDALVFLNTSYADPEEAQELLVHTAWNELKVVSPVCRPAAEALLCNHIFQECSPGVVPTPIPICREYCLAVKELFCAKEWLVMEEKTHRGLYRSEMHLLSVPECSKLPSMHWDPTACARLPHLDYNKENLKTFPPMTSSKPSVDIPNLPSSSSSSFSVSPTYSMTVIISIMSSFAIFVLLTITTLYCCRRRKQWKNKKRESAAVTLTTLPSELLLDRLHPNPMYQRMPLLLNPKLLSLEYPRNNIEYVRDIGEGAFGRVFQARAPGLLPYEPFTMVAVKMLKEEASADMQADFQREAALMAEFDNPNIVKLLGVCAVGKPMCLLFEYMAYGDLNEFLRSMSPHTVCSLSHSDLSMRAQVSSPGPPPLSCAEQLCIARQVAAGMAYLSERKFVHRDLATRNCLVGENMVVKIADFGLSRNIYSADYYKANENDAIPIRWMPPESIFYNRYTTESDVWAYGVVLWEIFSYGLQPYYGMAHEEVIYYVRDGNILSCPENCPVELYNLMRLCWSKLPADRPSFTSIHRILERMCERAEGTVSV

[4] = molecular target: 5'-AMP-activated protein kinase catalytic subunit alpha-1 (Homo sapiens, UniProt Q13131); assay: Selectivity interaction (ProQinase) EUB0000171b PRKAA1
[5] = molecular target: Protein kinase C gamma type (Homo sapiens) (UniProt P05129); assay: Selectivity interaction (ProQinase) EUB0000171b PRKCG
[6] = molecular target: Mitogen-activated protein kinase kinase kinase 4 (Homo sapiens) (UniProt Q9Y6R4); details: at 10 µM
[7] = molecular target: Ribosomal protein S6 kinase alpha-5 (Homo sapiens) (UniProt O75582); assay: Selectivity interaction (KinomeScan (DiscoverX)) EUB0000311b RPS6KA5; details: at 1 µM
[8] = molecular target: T2, Phosphatidylinositol 3-kinase C2 domain-containing subunit gamma (Homo sapiens) (UniProt O75747); assay: Selectivity interaction (KinomeScan (DiscoverX)) EUB0000607a PIK3C2G; details: at 10 µM
T2 sequence (whole entry): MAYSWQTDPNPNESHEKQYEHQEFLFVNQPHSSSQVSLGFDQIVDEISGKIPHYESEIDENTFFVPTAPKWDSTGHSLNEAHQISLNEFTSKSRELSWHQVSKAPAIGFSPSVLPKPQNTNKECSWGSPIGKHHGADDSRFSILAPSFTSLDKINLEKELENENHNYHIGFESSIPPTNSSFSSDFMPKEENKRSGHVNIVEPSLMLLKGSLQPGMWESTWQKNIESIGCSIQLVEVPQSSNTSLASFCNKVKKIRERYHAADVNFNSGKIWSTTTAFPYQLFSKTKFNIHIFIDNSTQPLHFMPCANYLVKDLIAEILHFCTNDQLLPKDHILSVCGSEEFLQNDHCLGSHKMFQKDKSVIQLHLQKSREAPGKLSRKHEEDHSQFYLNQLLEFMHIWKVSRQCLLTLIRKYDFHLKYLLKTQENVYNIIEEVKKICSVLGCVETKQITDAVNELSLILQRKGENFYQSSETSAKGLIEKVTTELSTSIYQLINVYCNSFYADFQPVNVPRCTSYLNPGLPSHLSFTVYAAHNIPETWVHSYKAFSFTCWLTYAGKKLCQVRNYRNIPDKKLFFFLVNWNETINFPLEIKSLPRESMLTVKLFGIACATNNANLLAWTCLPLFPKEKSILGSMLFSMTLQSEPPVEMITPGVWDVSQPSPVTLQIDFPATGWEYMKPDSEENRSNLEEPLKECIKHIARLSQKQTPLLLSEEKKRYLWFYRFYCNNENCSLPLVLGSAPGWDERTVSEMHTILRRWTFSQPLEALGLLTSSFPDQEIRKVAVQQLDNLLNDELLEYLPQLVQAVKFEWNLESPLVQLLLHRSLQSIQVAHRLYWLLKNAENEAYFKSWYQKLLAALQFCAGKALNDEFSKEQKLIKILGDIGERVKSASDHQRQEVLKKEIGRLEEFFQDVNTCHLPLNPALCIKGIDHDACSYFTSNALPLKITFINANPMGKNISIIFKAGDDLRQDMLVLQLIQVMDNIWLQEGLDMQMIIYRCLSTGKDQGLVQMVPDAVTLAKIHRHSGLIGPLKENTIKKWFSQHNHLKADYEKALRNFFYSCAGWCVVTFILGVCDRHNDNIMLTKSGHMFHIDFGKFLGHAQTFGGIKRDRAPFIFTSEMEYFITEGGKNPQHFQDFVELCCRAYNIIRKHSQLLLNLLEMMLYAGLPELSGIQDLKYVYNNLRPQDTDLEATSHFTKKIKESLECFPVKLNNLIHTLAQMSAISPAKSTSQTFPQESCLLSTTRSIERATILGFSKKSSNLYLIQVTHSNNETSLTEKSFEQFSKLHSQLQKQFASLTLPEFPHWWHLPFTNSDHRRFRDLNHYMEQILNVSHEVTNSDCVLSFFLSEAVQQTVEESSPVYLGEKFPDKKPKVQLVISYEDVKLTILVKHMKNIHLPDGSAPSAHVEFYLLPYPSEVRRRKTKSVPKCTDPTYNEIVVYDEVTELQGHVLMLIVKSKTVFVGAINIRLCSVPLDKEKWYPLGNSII

[9] = molecular target: Serine/threonine-protein kinase MARK1 (Homo sapiens) (UniProt Q9P0L2); assay: Selectivity interaction (KinomeScan (DiscoverX)) EUB0000045b MARK1
Sequence of Serine/threonine-protein kinase MARK1 (Homo sapiens) (Q9P0L2 whole entry, looked up): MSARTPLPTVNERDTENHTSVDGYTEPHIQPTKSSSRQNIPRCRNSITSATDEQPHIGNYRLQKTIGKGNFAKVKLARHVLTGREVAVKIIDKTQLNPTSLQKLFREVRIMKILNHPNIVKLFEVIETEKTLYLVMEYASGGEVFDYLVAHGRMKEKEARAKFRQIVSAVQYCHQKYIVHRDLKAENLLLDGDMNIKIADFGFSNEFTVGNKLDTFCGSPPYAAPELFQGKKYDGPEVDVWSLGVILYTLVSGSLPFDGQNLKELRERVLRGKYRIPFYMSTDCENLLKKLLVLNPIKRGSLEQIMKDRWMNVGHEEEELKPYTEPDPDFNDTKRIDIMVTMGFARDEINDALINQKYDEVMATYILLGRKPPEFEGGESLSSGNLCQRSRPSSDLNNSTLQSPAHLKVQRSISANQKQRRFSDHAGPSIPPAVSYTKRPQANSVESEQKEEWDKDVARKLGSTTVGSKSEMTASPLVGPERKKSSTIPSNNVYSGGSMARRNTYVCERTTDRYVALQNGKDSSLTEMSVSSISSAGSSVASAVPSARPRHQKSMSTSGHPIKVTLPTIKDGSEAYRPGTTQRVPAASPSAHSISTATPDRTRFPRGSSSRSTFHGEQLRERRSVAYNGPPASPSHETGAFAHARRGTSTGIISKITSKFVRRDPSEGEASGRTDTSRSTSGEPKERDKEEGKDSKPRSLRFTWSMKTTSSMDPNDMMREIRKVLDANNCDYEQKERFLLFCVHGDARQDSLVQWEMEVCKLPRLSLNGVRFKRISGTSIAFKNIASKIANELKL

Sequence of DNA (cytosine-5)-methyltransferase 3A (Homo sapiens) (Q9Y6K1 whole entry, looked up): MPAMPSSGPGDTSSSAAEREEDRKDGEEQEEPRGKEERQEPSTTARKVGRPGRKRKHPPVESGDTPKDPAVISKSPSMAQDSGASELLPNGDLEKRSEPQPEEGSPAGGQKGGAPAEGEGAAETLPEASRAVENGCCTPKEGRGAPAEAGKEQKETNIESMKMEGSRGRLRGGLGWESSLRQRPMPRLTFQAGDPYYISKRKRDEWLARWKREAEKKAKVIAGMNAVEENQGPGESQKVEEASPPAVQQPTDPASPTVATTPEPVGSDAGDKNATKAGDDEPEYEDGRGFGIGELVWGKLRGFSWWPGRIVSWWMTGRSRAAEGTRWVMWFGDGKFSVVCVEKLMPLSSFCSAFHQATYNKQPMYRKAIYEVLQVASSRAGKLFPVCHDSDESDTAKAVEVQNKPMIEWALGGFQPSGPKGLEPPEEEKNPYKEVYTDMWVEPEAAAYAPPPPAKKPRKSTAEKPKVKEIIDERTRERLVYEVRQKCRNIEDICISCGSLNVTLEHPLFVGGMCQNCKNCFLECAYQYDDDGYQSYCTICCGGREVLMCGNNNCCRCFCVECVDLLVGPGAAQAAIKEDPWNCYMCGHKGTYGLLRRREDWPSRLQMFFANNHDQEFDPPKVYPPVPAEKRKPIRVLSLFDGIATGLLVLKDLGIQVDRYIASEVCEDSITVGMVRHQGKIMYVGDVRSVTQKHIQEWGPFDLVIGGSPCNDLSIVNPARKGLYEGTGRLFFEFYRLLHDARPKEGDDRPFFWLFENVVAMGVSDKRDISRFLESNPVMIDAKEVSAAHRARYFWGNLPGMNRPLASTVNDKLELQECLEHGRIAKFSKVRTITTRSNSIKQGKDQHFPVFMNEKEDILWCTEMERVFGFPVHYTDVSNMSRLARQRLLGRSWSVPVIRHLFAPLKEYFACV
Sequence of 5'-AMP-activated protein kinase catalytic subunit alpha-1 (Q13131 whole entry, looked up): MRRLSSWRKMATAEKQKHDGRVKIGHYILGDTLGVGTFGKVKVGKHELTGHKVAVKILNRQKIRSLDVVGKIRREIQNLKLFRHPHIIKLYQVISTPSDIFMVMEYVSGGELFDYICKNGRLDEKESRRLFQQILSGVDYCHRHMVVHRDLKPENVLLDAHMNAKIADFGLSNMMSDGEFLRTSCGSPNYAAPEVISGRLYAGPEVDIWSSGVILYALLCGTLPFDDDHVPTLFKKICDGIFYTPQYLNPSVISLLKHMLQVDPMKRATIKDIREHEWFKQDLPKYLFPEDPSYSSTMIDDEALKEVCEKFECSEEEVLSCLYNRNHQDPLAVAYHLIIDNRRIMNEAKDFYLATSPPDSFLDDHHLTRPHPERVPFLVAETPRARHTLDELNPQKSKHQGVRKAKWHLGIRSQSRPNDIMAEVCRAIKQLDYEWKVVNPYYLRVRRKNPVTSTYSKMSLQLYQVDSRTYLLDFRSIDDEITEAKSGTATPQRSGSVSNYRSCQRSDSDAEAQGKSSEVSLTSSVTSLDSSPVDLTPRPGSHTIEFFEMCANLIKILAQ
Sequence of Protein-tyrosine kinase 2-beta (Homo sapiens) (Q14289 whole entry, looked up): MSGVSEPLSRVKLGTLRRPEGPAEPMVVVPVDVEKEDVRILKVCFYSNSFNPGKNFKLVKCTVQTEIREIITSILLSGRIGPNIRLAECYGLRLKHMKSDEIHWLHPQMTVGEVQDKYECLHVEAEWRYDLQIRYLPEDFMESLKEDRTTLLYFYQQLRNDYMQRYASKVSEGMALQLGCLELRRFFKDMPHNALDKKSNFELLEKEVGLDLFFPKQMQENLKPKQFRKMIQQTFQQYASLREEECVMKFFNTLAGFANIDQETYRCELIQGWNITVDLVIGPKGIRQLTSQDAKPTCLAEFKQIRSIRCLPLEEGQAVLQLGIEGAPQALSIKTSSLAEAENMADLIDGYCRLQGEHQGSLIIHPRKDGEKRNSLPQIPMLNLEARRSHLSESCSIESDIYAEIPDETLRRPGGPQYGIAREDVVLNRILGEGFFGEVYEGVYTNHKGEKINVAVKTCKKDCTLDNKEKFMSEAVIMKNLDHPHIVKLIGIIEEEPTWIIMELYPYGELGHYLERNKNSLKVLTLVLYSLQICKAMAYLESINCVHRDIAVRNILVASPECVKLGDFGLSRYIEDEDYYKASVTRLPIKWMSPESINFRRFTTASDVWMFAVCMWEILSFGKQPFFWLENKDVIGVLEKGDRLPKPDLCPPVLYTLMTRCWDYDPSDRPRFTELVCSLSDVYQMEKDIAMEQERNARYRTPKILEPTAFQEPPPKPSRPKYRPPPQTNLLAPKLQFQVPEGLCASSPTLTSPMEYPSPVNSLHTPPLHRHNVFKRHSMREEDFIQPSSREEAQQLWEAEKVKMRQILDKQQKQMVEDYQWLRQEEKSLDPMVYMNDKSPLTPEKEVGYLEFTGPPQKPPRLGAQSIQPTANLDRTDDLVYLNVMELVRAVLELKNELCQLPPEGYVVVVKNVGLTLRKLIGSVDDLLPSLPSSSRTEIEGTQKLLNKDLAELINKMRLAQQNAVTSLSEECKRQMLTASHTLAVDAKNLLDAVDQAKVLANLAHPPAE
Sequence of Ribosomal protein S6 kinase alpha-5 (Homo sapiens) (O75582 whole entry, looked up, the tested form may be a part): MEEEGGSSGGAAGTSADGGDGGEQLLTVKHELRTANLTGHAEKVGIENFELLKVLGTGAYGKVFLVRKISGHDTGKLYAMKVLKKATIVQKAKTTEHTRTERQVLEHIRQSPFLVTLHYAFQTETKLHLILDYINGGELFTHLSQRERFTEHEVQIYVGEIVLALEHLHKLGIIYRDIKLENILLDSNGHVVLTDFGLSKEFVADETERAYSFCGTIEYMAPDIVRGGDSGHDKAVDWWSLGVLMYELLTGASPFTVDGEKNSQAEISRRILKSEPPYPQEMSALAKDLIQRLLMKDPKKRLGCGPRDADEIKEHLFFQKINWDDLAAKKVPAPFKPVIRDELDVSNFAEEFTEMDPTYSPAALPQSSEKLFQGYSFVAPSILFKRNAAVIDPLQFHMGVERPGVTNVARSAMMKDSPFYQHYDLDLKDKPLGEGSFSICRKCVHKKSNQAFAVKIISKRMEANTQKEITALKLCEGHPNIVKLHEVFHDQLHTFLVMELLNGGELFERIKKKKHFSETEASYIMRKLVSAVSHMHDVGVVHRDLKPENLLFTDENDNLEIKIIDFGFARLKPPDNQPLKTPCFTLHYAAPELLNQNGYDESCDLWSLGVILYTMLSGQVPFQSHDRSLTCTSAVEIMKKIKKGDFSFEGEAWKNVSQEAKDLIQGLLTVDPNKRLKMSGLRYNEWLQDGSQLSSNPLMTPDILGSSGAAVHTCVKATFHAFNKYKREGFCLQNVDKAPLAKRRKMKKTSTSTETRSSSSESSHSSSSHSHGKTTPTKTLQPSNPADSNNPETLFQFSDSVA

**Q.** What does the source list for COCCN1CCC(c2cc(CN(C)C(=O)c3cccc(Oc4ccccc4)c3)ccn2)CC1?
**A.** % activity ([1]; at 1 µM): > 95%; % activity ([1]; at 10 µM): > 85%

**Q.** CCC(=O)N1CCN(c2ccc(-n3c(=O)ccc4cnc5ccc(-c6cnc7ccccc7c6)cc5c43)cc2C(F)(F)F)CC1 was tested. Which % of control [2] did it give?
**A.** The % of control was 100%.

**Q.** How did the % of control ([3]; at 1 µM) turn out when C=CC(=O)Nc1cccc(C(=O)Nc2ccc(Nc3cc(-c4[nH]c(SC)nc4C)ccn3)cc2)c1 was run?
**A.** The % of control was 74%.

**Q.** What about the % of control ([3]; at 5 µM) of the same compound?
**A.** The % of control was 31%.

**Q.** What about the % of control ([4]; at 1 µM) of the same compound?
**A.** The % of control was 100%.

**Q.** And the % of control ([4]; at 5 µM)?
**A.** The % of control was 93%.

**Q.** And the % of control ([5]; at 1 µM)?
**A.** Its % of control is 88%.

**Q.** What about the % of control ([5]; at 5 µM) of the same compound?
**A.** Its % of control is 100%.

**Q.** For Cc1cc([C@@H](C)Nc2ccccc2C(=O)O)c2nc(N3CCOCC3)cc(=O)n2c1 [AZD-6482], which % of control [6] is on record?
**A.** The % of control was 100%.

**Q.** For CCc1ccccc1C(=O)Nc1n[nH]c2c(C)c(F)c(C3C(C#N)=C(C)N(C)C(C)=C3C#N)cc12 [BAY-3827], which % of control [7] is on record?
**A.** The % of control was 1%.

**Q.** For CNC(=O)Nc1ccc(-c2nc(N3CC4CCC(C3)O4)c3cnn(C4CCC5(CC4)OCCO5)c3n2)cc1, which % of control [8] is on record?
**A.** Its % of control is 22%.

**Q.** Which results are given for C=CC(=O)Nc1cc(-n2c(=O)ccc3cnc4ccc(-c5ccc(NS(C)(=O)=O)cc5)cc4c32)ccc1C?
**A.** % of control ([9]; at 1 µM): 97%; % of control ([9]; at 10 µM): 89%

From ChEMBL document CHEMBL5465560, “Selectivity Literature for EUbOPEN Chemogenomic Library” (2024)
